Source: patent US20130137865A1 (TAISHO PHARMACEUTICAL CO., LTD., priority 2010, published 2013)

molecular target: T1, rat mGlu2 receptor (Rattus norvegicus, UniProt P31421); assay: [35S]GTPγS binding test (1), membranes of CHO cells stably expressing rat mGlu2; assay type: biochemical; settings: inhibition of glutamic acid (20 μM)-stimulated specific [35S]GTPγS binding
T1 construct: expressed in transfected cells; host or cells: CHO cells
Protocol: (Preparation of Crude Membrane Fraction of CHO Cells Stably Expressing the Rat Metabotropic Glutamate Receptor (mGlu2))
CHO cells stably expressing the rat mGlu2 receptor were cultured in a 10% dialyzed fetal bovine serum-containing Dulbecco's Modified Eagle's Medium [1% proline, 50 units/mL penicillin, 50 μg/mL streptomycin, and 2 mM L-glutamine (to be added when used)] at 37° C. in 5% CO2. Confluent cells were washed with PBS(−) twice, and were then harvested with a cell scraper. Then, the cells were centrifuged at 4° C. at 1000 rpm for 5 minutes to collect. The obtained precipitate was suspended in a 20 mM HEPES buffer (pH 7.4), and then homogenized with a Teflon® homogenizer. The resultant was centrifuged at 4° C. at 48,000×g for 20 minutes to obtain a precipitate again. The obtained precipitate was washed twice by centrifugation, and was then homogenized with the above-mentioned buffer, so as to obtain a crude membrane fraction. The obtained crude membrane fraction was preserved at −80° C.
The frozen membrane fraction as prepared above was thawed when used, and it was then diluted with a binding test buffer (final concentration: 20 mM HEPES, 100 mM NaCl, 10 mM MgCl2, 8.4 μM GDP, 10 μg/mL saponin, and 0.1% BSA). The compound of the Example was added to a membrane fraction (10 μg protein/assay), and the obtained mixture was then incubated at 30° C. for 20 minutes. Thereafter, glutamic acid (final concentration: 20 μM) and [^35S]GTPγS (final concentration: 0.15 nM) were added to the reaction mixture, and then incubated at 30° C. for 1 hour. After completion of the incubation, the reaction mixture was subjected to filtration over a Whatman GF/C filter that had previously been immersed in a 20 mM HEPES buffer (pH 7.4), and the filter was then washed three times with 300 μL of ice-cold 20 mM HEPES buffer (pH 7.4). A scintillation cocktail was added to the resulting filter, and membrane-bound radioactivity was then measured with a liquid scintillation counter.
The amount of [^35S]GTPγS bound in the case of carrying out the above described reaction in the absence of glutamic acid was defined as non-specific binding. The difference between such non-specific bound and the amount of [^35S]GTPγS bound in the presence of glutamic acid was defined as specific binding. Using non-linear analysis, a concentration-inhibition curve was produced. The concentration of the compound of each Example that caused 50% inhibition (IC50 value) of specific binding was determined from each concentration-inhibition curve.

T1 sequence (P31421 19-872): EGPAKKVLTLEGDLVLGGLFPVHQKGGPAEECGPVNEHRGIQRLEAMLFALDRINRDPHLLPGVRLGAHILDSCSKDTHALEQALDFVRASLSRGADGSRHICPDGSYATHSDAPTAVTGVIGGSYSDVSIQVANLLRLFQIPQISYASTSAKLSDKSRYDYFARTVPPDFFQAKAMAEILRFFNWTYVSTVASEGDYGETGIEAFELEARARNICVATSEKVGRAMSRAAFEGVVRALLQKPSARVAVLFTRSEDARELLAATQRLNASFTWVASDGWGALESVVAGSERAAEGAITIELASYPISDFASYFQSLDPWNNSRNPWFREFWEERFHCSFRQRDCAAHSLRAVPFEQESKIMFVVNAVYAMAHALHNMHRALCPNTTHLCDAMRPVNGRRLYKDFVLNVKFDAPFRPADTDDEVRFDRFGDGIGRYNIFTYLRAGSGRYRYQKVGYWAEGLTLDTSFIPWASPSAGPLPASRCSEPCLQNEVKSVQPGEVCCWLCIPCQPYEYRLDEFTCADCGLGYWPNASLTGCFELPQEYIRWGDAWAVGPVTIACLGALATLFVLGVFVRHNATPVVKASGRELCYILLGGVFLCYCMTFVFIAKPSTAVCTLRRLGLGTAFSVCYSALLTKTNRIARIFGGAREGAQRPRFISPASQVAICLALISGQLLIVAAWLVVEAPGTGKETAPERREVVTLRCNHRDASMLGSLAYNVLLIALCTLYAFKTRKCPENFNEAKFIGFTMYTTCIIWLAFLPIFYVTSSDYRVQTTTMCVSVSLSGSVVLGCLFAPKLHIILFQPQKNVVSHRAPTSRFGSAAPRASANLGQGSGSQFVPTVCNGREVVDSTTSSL

Q: Which IC50 does the source give for `Cn1ncc(-c2nc(-c3cccc(S(N)(=O)=O)c3)no2)c1COc1cccc(F)c1` [Example 68, 3-(5-{5-[(3-Fluorophenoxy)methyl]-1-methyl-1H-pyrazol-4-yl}-1,2,4-oxadiazol-3-yl)benzenesulfonamide] here?
A: The IC50 was 0.0069 µM.

Q: `Cn1ncc(-c2nc(-c3cccc(S(N)(=O)=O)c3)no2)c1COc1cccc(OC(F)(F)F)c1` [Example 69, 3-[5-(1-Methyl-5-{[3-(trifluoromethoxy)phenoxy]methyl}-1H-pyrazol-4-yl)-1,2,4-oxadiazol-3-yl]benzenesulfonamide] was tested. Which IC50 did it give?
A: Its IC50 is 0.00356 µM.

Q: With `Cn1ncc(-c2noc(-c3ccc(S(N)(=O)=O)cc3)n2)c1CCc1ccc(C(F)(F)F)cc1` [Example 3, 4-[3-(1-Methyl-5-{2-[4-(trifluoromethyl)phenyl]ethyl}-1H-pyrazol-4-yl)-1,2,4-oxadiazol-5-yl]benzenesulfonamide] as the molecule, how does the IC50 read?
A: The IC50 was 0.00365 µM.

Q: With `Cn1ncc(-c2nc(-c3ccc(S(N)(=O)=O)cc3)no2)c1CCc1ccc(C(F)(F)F)cc1` [Example 19, 4-[5-(1-Methyl-5-{2-[4-(trifluoromethyl)phenyl]ethyl}-1H-pyrazol-4-yl)-1,2,4-oxadiazol-3-yl]benzenesulfonamide] as the molecule, how does the IC50 read?
A: The IC50 was 0.00869 µM.

Q: `Cn1ncc(-c2nc(-c3cccc(S(N)(=O)=O)c3)no2)c1N1Cc2ccc(C(F)(F)F)cc2C1` [Example 21, 3-(5-{1-Methyl-5-[5-(trifluoromethyl)-1,3-dihydro-2H-isoindol-2-yl]-1H-pyrazol-4-yl}-1,2,4-oxadiazol-3-yl)benzenesulfonamide] was tested. Which IC50 did it give?
A: Its IC50 is 0.0148 µM.

Q: For `Cn1ncc(-c2nc(-c3cccc(S(N)(=O)=O)c3)no2)c1CNc1ccc(C(F)(F)F)cc1` [Example 9], which IC50 is on record?
A: Its IC50 is 0.0285 µM.

Q: `Cn1ncc(-c2nc(-c3cccc(S(N)(=O)=O)c3)co2)c1CCc1ccc(C(F)(F)F)cc1` [Example 10, 3-[2-(1-Methyl-5-{2-[4-(trifluoromethyl)phenyl]ethyl}-1H-pyrazol-4-yl)-1,3-oxazol-4-yl]benzenesulfonamide] was tested. Which IC50 did it give?
A: The IC50 was 0.0101 µM.

Q: `Cn1ncc(-c2nc(-c3cccc(S(N)(=O)=O)c3)no2)c1CCc1ccc(C(F)(F)F)cn1` [Example 8, 3-[5-(1-Methyl-5-{2-[5-(trifluoromethyl)pyridin-2-yl]ethyl}-1H-pyrazol-4-yl)-1,2,4-oxadiazol-3-yl]benzenesulfonamide] was tested. Which IC50 did it give?
A: Its IC50 is 0.0985 µM.

Q: How did the IC50 turn out when `CN(C)CCNS(=O)(=O)c1ccc(-c2noc(-c3cnn(C)c3CCc3ccc(C(F)(F)F)cc3)n2)cc1` [Example 31, N-[2-(Dimethylamino)ethyl]-4-[5-(1-methyl-5-{2-[4-(trifluoromethyl)phenyl]ethyl}-1H-pyrazol-4-yl)-1,2,4-oxadiazol-3-yl]benzenesulfonamide] was run?
A: The IC50 was 0.022 µM.

Q: How did the IC50 turn out when `Cn1ncc(-n2cc(-c3ccc(S(N)(=O)=O)cc3)cn2)c1CCc1ccc(C(F)(F)F)cc1` [Example 6, 4-(1′-Methyl-5′-{2-[4-(trifluoromethyl)phenyl]ethyl}-1′H-1,4′-bipyrazol-4-yl)benzenesulfonamide] was run?
A: The IC50 was 0.0585 µM.

Q: `Cn1ncc(-c2nc(-c3ccc(S(N)(=O)=O)cc3)no2)c1OCc1ccc(C(F)(F)F)cc1` [Example 56, 4-[5-(1-Methyl-5-{[4-(trifluoromethyl)benzyl]oxy}-1H-pyrazol-4-yl)-1,2,4-oxadiazol-3-yl]benzenesulfonamide] was tested. Which IC50 did it give?
A: Its IC50 is 0.0447 µM.

Q: For `Cn1ncc(-c2nc(-c3ccc(S(=O)(=O)O)cc3)no2)c1CCc1ccc(C(F)(F)F)cc1` [Example 15, 4-[5-(1-Methyl-5-{2-[4-(trifluoromethyl)phenyl]ethyl}-1H-pyrazol-4-yl)-1,2,4-oxadiazol-3-yl]benzenesulfonic acid], which IC50 is on record?
A: The IC50 was 0.0396 µM.

Q: `CCn1ncc(-c2nc(-c3cccc(S(N)(=O)=O)c3)no2)c1CCc1ccc(C(F)(F)F)cc1` [Example 39, 3-[5-(1-Ethyl-5-{2-[4-(trifluoromethyl)phenyl]ethyl}-1H-pyrazol-4-yl)-1,2,4-oxadiazol-3-yl]benzenesulfonamide] was tested. Which IC50 did it give?
A: Its IC50 is 0.012 µM.

Q: With `NS(=O)(=O)c1cccc(-c2noc(-c3cnn(CF)c3CCc3ccc(C(F)(F)F)cc3)n2)c1` [Example 41, 3-{5-[1-(Fluoromethyl)-5-{2-[4-(trifluoromethyl)phenyl]ethyl}-1H-pyrazol-4-yl]-1,2,4-oxadiazol-3-yl}benzenesulfonamide] as the molecule, how does the IC50 read?
A: Its IC50 is 0.00906 µM.

Q: With `Cn1ncc(-c2nc(-c3cccc(S(=O)(=O)O)c3)no2)c1COc1ccc(C(F)(F)F)cc1` [Example 134, 3-[5-(1-Methyl-5-{[4-(trifluoromethyl)phenoxy]methyl}-1H-pyrazol-4-yl)-1,2,4-oxadiazol-3-yl]benzenesulfonic acid] as the molecule, how does the IC50 read?
A: Its IC50 is 0.0251 µM.

Q: `COc1cccc(OCc2c(-c3nc(-c4cccc(S(N)(=O)=O)c4)no3)cnn2C)c1` [Example 66, 3-(5-{5-[(3-Methoxyphenoxy)methyl]-1-methyl-1H-pyrazol-4-yl}-1,2,4-oxadiazol-3-yl)benzenesulfonamide] was tested. Which IC50 did it give?
A: Its IC50 is 0.00429 µM.

Q: `Cc1ccc(OCc2c(-c3nc(-c4cccc(S(N)(=O)=O)c4)no3)cnn2C)cc1` [Example 51, 3-(5-{1-Methyl-5-[(4-methylphenoxy)methyl]-1H-pyrazol-4-yl}-1,2,4-oxadiazol-3-yl)benzenesulfonamide] was tested. Which IC50 did it give?
A: The IC50 was 0.00816 µM.
